Assay results from US12268210B2, “Performic acid on-site generator and formulator” (ECOLAB USA INC., priority 2015, dated 2025).

Key:
[1] = cited from earlier work; for half-life: shelf life stability, order of magnitude
SRB or APB populations = assay: Micro efficacy of field-generated PFA at a salt water disposal well (serial dilution bug bottles); type: cell-based; conditions: for log reduction in microbial population: compared to incoming water, serial dilution bug bottles selecting for SRB or APB
Protocol: The peroxyformic acid generator according to the embodiments depicted in the figures having multiple inlets to provide formic acid blend (formic acid, catalyst and corrosion inhibitor) as well as hydrogen peroxide was evaluated under field conditions at a scale-up volume. The generator was used at a salt water disposal well.
The performance of the chemistry generated in the field according to Example 5 was evaluated for micro efficacy. PFA dosed at 250 ppm (˜25 ppm active) indicates at least reduction in microbial numbers equivalent to 2-3 logs, as shown in FIG. 13. In the figures the GB refers to site of treatment (gun barrel) measurement, whereas SWD refers to the disposal water measurement for micro efficacy.
The percentage reduction of microbial numbers compared to incoming water was also evaluated. Microbial numbers were monitored using traditional serial dilution bug bottles that select for SRB or APB populations.

For performic acid [PFA], the “time to decompose into carbon dioxide and water” value ([1]; ambient temperature and pressure) is listed as “within a few hours”, the half-life [1] is listed as “minutes to hours” and the “reduction in microbial numbers” value (SRB or APB populations; PFA dosed at 250 ppm (~25 ppm active), GB (gun barrel) and SWD (disposal water) measurements, FIG. 13) is listed as 2-3 logs. For the same compound, the “log reduction in microbial population” value (SRB or APB populations; all results) was 2-3 log and the “log reduction in microbial population” value (SRB or APB populations; in some case) was 7 log.
For `CC(=O)OO` [peracetic acid, reference compound], the half-life [1] is listed as “weeks to months”.
